Reference: patent publication US20100184704A1, “USE OF THE PEPTIDE GLY-ARG-GLY-ASP-ASN-PRO AS A THERAPEUTIC AGENT” (priority 2007, published 2010)
Where a SMILES comes first, the peptide text is derived from it.

Experiments:
HCMV strain AD169 = experiment: HCMV plaque reduction assay in MRC-5 cells; settings: HCMV AD169 in MRC-5 cells; peptide 10 micrograms per ml; 7-10 days
[1] = tested on: MRC-5 cells (human embryonal lung fibroblasts); settings: 6 days
CEM-SS cells = experiment: Cytotoxicity in the HIV-1 assay (MTS cell viability); settings: CEM-SS cells, HIV-1 assay; peptide 10 micrograms per ml; MTS
HIV-1 = HIV-1 antiviral assay (CPE reduction, MTS readout) in CEM-SS cells; format: cell-based; settings: peptide 10 micrograms per ml, strain HIV-1111B, 6 days post-infection
[2] = Cytotoxicity in the HIV-1 assay (MTS cell viability); settings: human, CEM-SS cells (uninfected, cells plus peptide only)
[3] = Cytotoxicity in the HBV assay (dye uptake cell viability); format: cell-based; settings: human, HepG2-2.2.15 cells (stable line containing HBV ayw genome), peptide 10 micrograms per ml
Streptococcus pneumoniae = Streptococcus pneumoniae growth inhibition assay; format: cell-based; settings: peptide 10 micrograms per ml, visual read, scored positive/negative
Excerpt: Results from Streptococcus pneumoniae assay:

[4] = Cytotoxicity in the HCMV assay (CellTiter 96 cell viability); settings: human, MRC-5 cells (embryonal lung fibroblasts)
Pseudomonas aeruginosa = Pseudomonas aeruginosa growth inhibition assay; format: cell-based; settings: peptide 10 micrograms per ml, visual read, scored positive/negative
[5] = tested on: Methicillin Resistant Staphylococcus Aureus (MRSA); experiment: Methicillin resistant Staphylococcus aureus (MRSA) growth inhibition assay; format: cell-based; settings: peptide 10 micrograms per ml, visual read, scored positive/negative (complete inhibition of macroscopic growth)
HepG2-2.2.15 cells = experiment: Cytotoxicity in the HBV assay (dye uptake cell viability); format: cell-based; settings: peptide 10 micrograms per ml

In the case of Nc1nc(O)c2ncn(COC(CO)CO)c2n1 [Ganciclovir], the “% plaque reduction” value (HCMV strain AD169) is reported as 100% and the “% Cell viability” value [1] is reported as 100%.
For Cc1cn([C@H]2C[C@H](N=[N+]=[N-])[C@@H](CO)O2)c(=O)[nH]c1=O [AZT], the “% Cell viability” value (CEM-SS cells) was 97% and the “% CPE reduction in HIV-1 infected CEM-SS cells” value (HIV-1) was 99%.
In the case of N=C(N)NCCC[C@H](NC(=O)CN)C(=O)NCC(=O)N[C@@H](CC(=O)O)C(=O)N[C@@H](CC(N)=O)C(=O)N1CCC[C@H]1C(=O)O [Gly-Arg-Gly-Asp-Asn-Pro, Gly-Arg-Gly-Asp-Asn-Pro-OH] (H-GRGDNP-OH), the viability at 10 micrograms per ml [2] is reported as 100%, the viability at 144 h, 10 micrograms per ml [3] is reported as 95.2% and the “% inhibition” value (Streptococcus pneumoniae) is reported as 100.0%. For the same compound, the viability at 144 h [4] was 100%, the “% inhibition” value (Pseudomonas aeruginosa) was 0.0% and the “% inhibition” value [5] was 0.0%.
With CC(C)(C)NC(=O)[C@@H]1CN(Cc2cccnc2)CCN1C[C@@H](O)C[C@@H](Cc1ccccc1)C(=O)N[C@H]1c2ccccc2C[C@H]1O [Indinavir, indinavir] the “% CPE reduction in HIV-1 infected CEM-SS cells” value (HIV-1) was 100%.
In the case of Nc1ccn([C@@H]2CS[C@H](CO)O2)c(=O)n1 [3TC, Lamivudine], the “% Cell viability” value (HepG2-2.2.15 cells) is reported as 95.8%.
